Measured values from ChEMBL document CHEMBL1201862, “PubChem BioAssay data set” (2004).
Calls of active or inactive are those of the source.

Legend:
[1] = biological target: T1, Carboxy-terminal domain RNA polymerase II polypeptide A small phosphatase 1 (Homo sapiens, UniProt Q9GZU7); assay: CTDSP1 inhibitors, concentration-response, biochemical, absorbance readout, ultra-high-throughput screen actives (AID 540297); type: functional
T1 sequence (Q9GZU7 whole entry): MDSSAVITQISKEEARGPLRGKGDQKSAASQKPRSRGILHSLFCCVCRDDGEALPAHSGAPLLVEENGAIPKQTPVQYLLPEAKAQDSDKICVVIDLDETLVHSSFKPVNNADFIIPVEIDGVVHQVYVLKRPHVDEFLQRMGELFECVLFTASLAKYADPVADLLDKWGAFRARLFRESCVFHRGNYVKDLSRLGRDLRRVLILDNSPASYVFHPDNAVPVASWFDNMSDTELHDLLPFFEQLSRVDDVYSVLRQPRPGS

[2] = biological target: Tyrosine-protein phosphatase non-receptor type 11 (Homo sapiens, UniProt Q06124); assay: PTPN11 enzyme inhibitors – biochemical, selectivity assay for STEP inhibitor project, dose response (AID 602367); type: functional; conditions: read-out: IC50_Mean
[3] = biological target: Tyrosine-protein phosphatase non-receptor type 5 (Homo sapiens, UniProt P54829); assay: PTPN5 enzyme inhibition – biochemical, fluorescence intensity, uHTS hits, confirmation (AID 602372); type: functional; conditions: read-out: IC50_Mean
[4] = biological target: Dual specificity protein phosphatase 3 (Homo sapiens, UniProt P51452); assay: VHR phosphatase inhibition, dose response, selectivity assay for STEP inhibitor project, biochemical (AID 602374); type: functional; conditions: read-out: IC50_Mean
[5] = biological target: T2, Tyrosine-protein phosphatase non-receptor type 22 (Homo sapiens, UniProt Q9Y2R2); assay: lymphoid phosphatase LYP inhibitors – biochemical, selectivity assay for STEP inhibitor project, dose response (AID 624241); type: functional
T2 sequence (Q9Y2R2 whole entry): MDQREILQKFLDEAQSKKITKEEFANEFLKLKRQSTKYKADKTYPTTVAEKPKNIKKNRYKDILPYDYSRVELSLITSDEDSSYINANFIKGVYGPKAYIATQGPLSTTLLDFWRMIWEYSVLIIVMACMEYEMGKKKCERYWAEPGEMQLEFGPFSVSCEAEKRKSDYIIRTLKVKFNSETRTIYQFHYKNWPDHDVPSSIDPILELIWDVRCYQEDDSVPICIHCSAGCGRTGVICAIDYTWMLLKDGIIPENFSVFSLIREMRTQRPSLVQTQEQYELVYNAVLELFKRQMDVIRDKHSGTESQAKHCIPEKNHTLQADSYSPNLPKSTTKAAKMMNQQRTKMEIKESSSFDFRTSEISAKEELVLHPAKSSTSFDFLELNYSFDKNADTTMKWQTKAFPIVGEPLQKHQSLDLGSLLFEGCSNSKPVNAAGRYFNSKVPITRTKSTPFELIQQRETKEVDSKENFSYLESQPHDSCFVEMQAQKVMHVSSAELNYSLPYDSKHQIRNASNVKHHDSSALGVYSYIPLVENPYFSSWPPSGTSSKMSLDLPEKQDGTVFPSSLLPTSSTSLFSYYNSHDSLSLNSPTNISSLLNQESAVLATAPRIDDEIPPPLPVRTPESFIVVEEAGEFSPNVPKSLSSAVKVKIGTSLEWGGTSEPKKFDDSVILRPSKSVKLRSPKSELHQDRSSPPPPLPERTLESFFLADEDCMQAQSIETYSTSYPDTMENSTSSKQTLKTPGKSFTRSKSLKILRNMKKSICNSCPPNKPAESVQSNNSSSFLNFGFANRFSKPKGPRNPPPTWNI

[6] = Luminescence-based dose response cell-based high throughput screening assay for cytotoxic compounds using the IEC-6 intestinal epithelial cell line. [Related pubchem assays: 1858 (Summary AID.), 1825 (Counterscreen.), 1907 (Confirmation screen.)]; type: functional
[7] = HEK-293T viability loss after treatment – luminescence, T-cell screen hits, cytotoxicity control for TCR NF-kB inhibitor project, dose response (AID 489026); type: functional, cell-based;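 further: cells exposed to compound about 14 hours before the viability readout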
P388/ADR = assay: cells; type: functional; conditions: Mus musculus
SN12K1 = assay: cells; type: functional; conditions: Homo sapiens
P388 = assay: cells; type: functional; conditions: Mus musculus
cells [8] = type: functional, cell-based
[9] = biological target: T3, Nuclear receptor subfamily 0 group B member 1 (Homo sapiens, UniProt P51843); type: functional, cell-based;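 further: HEK293T cells transfected with SF-1 and DAX-1 plus StAR promoter luciferase reporter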
T3 sequence (P51843 whole entry): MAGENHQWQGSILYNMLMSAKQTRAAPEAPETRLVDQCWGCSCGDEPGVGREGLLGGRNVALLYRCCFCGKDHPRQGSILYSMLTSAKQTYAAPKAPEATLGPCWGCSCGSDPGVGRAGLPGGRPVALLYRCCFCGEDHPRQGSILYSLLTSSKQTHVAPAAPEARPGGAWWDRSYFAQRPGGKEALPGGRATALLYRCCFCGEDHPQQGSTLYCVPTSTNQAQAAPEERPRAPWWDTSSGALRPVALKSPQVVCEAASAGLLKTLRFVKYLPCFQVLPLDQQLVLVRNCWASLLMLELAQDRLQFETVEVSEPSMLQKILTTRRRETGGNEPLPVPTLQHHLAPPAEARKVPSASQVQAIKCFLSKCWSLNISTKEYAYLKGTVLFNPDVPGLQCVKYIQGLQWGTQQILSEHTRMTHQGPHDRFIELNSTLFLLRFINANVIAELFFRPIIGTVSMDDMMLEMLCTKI

Paired box protein Pax-8 = Paired box protein Pax-8 (Homo sapiens, UniProt Q06710); assay: PAX8 transcriptional activity inhibition in RMG-I – RMG-I cells, luciferase, cherry-pick, dose response (AID 687027); type: functional, cell-based;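 further: luciferase reporter driven by Pax8 target thyroperoxidase promoter measured by SteadyGlo luminescence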
[10] = rise of 2N DNA cells, HeLa – IC50, dose response (AID 1117349); type: functional, cell-based
Cytochrome P450 2D6 = Cytochrome P450 2D6 (Homo sapiens, UniProt P10635);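 further: CYP2D6 member of a cytochrome P450 panel assay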
Cytochrome P450 2C9 = Cytochrome P450 2C9 (Homo sapiens, UniProt P11712)
Beta-lactamase [11] = biological target: T4, Beta-lactamase (Pseudomonas aeruginosa, UniProt Q79MP6)
T4 sequence (Q79MP6 whole entry): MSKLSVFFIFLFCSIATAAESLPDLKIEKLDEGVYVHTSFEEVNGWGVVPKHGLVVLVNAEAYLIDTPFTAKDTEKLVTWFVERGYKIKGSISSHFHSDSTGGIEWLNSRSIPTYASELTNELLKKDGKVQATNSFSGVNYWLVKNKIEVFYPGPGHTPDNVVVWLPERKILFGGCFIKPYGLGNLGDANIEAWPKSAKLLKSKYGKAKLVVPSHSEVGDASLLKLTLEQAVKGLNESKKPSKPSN

Beta-lactamase [12] = biological target: T5, Beta-lactamase (Salmonella choleraesuis (strain SC-B67), UniProt Q5J463)
T5 sequence (Q5J463 whole entry): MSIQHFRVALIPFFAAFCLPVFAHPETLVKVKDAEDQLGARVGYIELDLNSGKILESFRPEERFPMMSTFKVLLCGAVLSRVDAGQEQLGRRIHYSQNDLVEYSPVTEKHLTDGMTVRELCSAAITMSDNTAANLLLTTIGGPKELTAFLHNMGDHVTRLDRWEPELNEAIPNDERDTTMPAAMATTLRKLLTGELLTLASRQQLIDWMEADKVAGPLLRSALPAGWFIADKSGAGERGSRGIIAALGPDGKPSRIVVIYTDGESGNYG

[13] = biological target: T6, Voltage-gated N-type calcium channel alpha-1B subunit/Amyloid beta A4 precursor protein-binding family A member 1 (Homo sapiens, UniProt Q00975+Q02410); type: protein assay
T6 sequence (Q00975 whole entry): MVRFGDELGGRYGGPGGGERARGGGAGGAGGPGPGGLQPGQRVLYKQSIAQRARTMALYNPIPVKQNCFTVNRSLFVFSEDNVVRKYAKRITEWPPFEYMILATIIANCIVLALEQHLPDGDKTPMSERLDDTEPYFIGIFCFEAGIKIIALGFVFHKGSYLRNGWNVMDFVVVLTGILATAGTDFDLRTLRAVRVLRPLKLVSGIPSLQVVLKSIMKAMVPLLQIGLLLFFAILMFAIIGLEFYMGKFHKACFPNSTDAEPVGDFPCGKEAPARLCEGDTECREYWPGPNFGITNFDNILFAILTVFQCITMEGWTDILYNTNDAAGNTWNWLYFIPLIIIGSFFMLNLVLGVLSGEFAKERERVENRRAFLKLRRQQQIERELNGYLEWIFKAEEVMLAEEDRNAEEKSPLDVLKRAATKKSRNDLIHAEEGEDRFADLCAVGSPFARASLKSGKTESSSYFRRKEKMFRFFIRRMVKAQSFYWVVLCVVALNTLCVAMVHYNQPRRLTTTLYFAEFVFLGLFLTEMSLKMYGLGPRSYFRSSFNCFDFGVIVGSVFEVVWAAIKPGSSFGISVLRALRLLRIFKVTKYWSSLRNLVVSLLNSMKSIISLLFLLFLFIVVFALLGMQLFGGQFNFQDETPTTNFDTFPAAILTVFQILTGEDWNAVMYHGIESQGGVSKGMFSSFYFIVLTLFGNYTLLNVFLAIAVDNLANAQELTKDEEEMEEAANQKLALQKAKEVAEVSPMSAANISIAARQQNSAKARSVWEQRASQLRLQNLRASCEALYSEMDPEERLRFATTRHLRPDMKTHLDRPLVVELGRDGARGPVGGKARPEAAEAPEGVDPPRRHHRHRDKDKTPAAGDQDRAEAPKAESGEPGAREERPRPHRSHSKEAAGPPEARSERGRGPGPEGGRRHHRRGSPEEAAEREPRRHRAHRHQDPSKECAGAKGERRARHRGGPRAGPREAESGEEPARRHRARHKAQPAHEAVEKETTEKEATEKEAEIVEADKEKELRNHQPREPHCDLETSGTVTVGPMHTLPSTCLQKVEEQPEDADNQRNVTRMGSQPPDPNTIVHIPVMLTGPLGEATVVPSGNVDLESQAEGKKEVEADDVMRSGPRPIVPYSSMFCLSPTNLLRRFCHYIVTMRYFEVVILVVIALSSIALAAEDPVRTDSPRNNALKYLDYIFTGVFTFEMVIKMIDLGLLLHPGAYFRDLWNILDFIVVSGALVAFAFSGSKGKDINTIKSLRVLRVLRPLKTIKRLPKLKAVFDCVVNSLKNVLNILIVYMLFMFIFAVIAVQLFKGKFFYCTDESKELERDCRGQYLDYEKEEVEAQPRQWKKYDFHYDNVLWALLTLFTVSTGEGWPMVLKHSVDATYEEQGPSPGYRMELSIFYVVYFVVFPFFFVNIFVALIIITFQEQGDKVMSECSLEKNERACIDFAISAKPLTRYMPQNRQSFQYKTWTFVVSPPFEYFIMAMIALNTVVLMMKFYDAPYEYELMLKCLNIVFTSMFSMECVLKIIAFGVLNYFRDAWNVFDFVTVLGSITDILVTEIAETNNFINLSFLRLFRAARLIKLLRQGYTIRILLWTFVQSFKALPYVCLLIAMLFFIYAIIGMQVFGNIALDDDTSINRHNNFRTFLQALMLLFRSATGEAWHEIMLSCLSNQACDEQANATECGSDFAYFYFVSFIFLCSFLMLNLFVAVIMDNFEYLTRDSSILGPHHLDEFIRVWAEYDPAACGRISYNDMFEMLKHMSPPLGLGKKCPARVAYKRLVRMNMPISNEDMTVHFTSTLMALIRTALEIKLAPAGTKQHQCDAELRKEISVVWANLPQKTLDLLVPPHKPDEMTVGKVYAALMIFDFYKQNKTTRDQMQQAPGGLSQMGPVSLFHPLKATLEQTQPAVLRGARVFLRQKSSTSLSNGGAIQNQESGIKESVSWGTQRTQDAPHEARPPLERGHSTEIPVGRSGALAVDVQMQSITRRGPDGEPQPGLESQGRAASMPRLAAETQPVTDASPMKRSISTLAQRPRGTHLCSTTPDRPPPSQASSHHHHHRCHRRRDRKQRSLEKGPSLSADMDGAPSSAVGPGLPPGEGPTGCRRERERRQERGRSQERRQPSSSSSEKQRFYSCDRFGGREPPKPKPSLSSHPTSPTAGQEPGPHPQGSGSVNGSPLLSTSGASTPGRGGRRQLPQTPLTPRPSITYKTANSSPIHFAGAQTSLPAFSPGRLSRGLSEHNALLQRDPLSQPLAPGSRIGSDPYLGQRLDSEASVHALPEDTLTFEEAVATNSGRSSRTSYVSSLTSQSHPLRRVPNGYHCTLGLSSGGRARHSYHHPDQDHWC
T6 sequence (Q02410 whole entry): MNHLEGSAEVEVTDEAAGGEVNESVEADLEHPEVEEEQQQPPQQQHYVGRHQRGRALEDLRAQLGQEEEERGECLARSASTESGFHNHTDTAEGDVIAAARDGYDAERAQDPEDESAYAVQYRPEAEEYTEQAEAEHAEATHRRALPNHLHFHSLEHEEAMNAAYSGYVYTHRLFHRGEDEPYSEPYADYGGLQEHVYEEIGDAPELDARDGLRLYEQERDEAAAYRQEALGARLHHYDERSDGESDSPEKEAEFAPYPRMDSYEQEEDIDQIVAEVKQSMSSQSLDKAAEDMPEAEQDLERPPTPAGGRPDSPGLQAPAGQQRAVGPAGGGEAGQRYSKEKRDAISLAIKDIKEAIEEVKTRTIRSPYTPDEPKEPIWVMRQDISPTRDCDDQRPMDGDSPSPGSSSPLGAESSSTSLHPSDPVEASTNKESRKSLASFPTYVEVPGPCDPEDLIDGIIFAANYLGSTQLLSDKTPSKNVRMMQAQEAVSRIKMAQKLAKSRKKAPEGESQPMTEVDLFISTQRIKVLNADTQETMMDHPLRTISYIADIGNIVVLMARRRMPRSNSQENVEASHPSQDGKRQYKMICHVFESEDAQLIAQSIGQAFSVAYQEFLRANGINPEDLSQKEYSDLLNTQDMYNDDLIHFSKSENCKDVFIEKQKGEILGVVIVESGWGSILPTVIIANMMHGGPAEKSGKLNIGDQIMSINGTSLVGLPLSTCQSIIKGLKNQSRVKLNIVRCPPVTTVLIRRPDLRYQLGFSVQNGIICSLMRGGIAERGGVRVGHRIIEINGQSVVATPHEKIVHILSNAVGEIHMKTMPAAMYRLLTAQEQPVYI

[14] = biological target: T6, Voltage-gated N-type calcium channel alpha-1B subunit/Amyloid beta A4 precursor protein-binding family A member 1; type: protein assay; remark: listed apart in the source
Ephrin type-A receptor 4 = Ephrin type-A receptor 4 (Mus musculus, UniProt Q03137); assay: EphA4 ligand-binding antagonists – biochemical, colorimetric, mouse EphA4, primary screen (AID 689); type: functional
[15] = biological target: Induced myeloid leukemia cell differentiation protein Mcl-1 (Homo sapiens, UniProt Q07820); type: functional
Sequence of Induced myeloid leukemia cell differentiation protein Mcl-1 (Q07820 whole entry): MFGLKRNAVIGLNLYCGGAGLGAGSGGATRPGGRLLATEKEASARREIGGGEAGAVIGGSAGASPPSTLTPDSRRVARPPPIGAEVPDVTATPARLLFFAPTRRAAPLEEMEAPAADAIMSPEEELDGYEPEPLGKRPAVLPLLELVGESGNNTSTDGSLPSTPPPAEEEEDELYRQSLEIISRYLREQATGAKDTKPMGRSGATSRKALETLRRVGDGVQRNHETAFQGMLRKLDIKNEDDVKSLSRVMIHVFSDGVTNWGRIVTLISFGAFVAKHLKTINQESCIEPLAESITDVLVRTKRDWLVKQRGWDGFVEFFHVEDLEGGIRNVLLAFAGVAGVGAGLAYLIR

[16] = biological target: Beta-2 adrenergic receptor (Homo sapiens, UniProt P07550); assay: Dose response for HTS for Beta-2AR agonists via FAP method from Powderset3.; type: functional
Beta-galactosidase = Beta-galactosidase (Escherichia coli, UniProt Q8VNN2); assay: Dose response counterscreen for EBI2 assay utilizing the enzyme, b-galactosidase.; type: functional
[17] = biological target: E3 ubiquitin-protein ligase XIAP (Homo sapiens, UniProt P98170); assay: Counter Screen using XIAP-Bir3 for Chemical Antagonists of Bir1/2 domains of IAP-family anti-apoptotic proteins. [Related pubchem assays (depositor defined):AID1018, AID1449, AID1514, AID1638, AID1749, AID1750, AID488957, AID488963]
[18] = biological target: 26S proteasome non-ATPase regulatory subunit 14 (Homo sapiens, UniProt O00487); assay: inhibition of proteasome subunit RPN11 – biochemical, fluorescence polarization, uHTS hits, confirmation (AID 602368); type: functional
[19] = biological target: 72 kDa type IV collagenase (Homo sapiens, UniProt P08253); assay: Dose Response validation of uHTS RPN11 inhibitor hits using a MMP-2 Fluorescence assay.; type: functional
Prothrombin = Prothrombin (Bos taurus, UniProt P00735); assay: thrombin protease inhibitors – biochemical, fluorescence polarization, uHTS hits, dose response (AID 602369); type: functional
[20] = biological target: T7, Small ubiquitin-related modifier 1 (Homo sapiens, UniProt P63165); assay: SUMO1 protein interaction blockers, potency – biochemical, fluorescence polarization, uHTS hits, dose response (AID 624382); type: functional; conditions: read-out: IC50_Mean
T7 sequence (P63165 whole entry): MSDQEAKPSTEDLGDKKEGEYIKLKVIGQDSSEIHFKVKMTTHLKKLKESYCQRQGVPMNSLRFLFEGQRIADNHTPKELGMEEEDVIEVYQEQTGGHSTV

[21] = biological target: T7, Small ubiquitin-related modifier 1; assay: SUMO1 protein-protein binding blockers, potency – biochemical, FRET, dose response (AID 624383); type: functional; conditions: read-out: IC50_Mean
Albumin = Albumin (Bos taurus, UniProt P02769); assay: Counterscreen for inhibitors of T-cell receptor (TCR)-CD3 interaction: Fluorescence-based biochemical high throughput dose response assay to identify inhibitors of T-cell receptor (TCR)-CD3 interaction using a TAMRA-labeled BSA probe.; type: functional
[22] = biological target: RNA-editing ligase 1, mitochondrial (Trypanosoma brucei brucei, UniProt P86926); assay: inhibition of trypanosome RNA editing ligase – biochemical, fluorescence, Trypanosoma brucei, dose response (AID 1117295); type: functional
Beta-lactamase [23] = biological target: T5, Beta-lactamase; assay: Epi-absorbance-based counterscreen for selective VIM-2 inhibitors: dose response biochemical high throughput screening assay to identify inhibitors of TEM-1 serine-beta-lactamase.
Beta-lactamase [24] = biological target: T4, Beta-lactamase; assay: inhibition of IMP-1 beta-lactamase activity – biochemical, epi-absorbance, selectivity assay for VIM-2 inhibitor project, dose response (AID 1920)
Beta-lactamase [25] = biological target: T4, Beta-lactamase; assay: […] counterscreen for selective VIM-2 inhibitors: dose response biochemical high throughput screening assay to identify inhibitors of IMP-1 metallo-beta-lactamase.
[26] = biological target: T8, Probable nicotinate-nucleotide adenylyltransferase (Staphylococcus aureus (strain N315), UniProt P65502); type: functional, Staphylococcus aureus subsp. aureus N315;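 on IC50 Mean: confirmatory dose-response retesting of NadD inhibitor hits first found in an ultra-high-throughput screen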
T8 sequence (P65502 whole entry): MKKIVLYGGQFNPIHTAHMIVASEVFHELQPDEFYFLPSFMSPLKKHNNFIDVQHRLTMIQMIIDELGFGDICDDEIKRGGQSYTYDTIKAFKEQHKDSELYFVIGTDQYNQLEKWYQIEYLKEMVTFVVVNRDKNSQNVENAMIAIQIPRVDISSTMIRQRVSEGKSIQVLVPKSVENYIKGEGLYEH

[27] = biological target: T8, Probable nicotinate-nucleotide adenylyltransferase; type: functional, Staphylococcus aureus subsp. aureus N315; conditions: read-out: IC50_Mean
[28] = biological target: T9, Low molecular weight phosphotyrosine protein phosphatase (Homo sapiens, UniProt P24666); type: functional; conditions: read-out: IC50_Mean
T9 sequence (P24666 whole entry): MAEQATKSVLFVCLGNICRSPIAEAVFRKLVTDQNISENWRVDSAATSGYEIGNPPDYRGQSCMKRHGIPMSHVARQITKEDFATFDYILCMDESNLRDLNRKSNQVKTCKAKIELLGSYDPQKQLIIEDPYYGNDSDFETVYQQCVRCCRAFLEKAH

[29] = biological target: T9, Low molecular weight phosphotyrosine protein phosphatase; type: functional; conditions: read-out: IC50_Mean; remark: listed apart in the source
[30] = biological target: T2, Tyrosine-protein phosphatase non-receptor type 22; assay: PTPN22 enzyme inhibitors – biochemical, fluorescence, LYP catalytic domain, selectivity assay for LMPTP inhibitor project, dose response (AID 652006); type: functional; conditions: read-out: IC50_Mean
cells [31] = type: functional, cell-based; remark: listed apart in the source
[32] = biological target: T10, Trace amine-associated receptor 1 (Homo sapiens, UniProt Q96RJ0); assay: Fluorescence-based cell-based high throughput dose response assay to identify agonists of the human trace amine associated receptor 1 (TAAR1).; type: functional
T10 sequence (Q96RJ0 whole entry): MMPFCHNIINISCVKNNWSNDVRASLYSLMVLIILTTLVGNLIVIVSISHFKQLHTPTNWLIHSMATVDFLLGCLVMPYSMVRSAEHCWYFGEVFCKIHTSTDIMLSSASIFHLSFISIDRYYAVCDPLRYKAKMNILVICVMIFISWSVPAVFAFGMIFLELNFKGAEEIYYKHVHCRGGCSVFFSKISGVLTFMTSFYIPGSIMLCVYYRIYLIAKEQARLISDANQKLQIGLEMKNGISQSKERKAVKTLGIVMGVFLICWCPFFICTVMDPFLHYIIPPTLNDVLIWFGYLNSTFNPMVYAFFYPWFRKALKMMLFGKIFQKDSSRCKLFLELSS

[33] = biological target: T10, Trace amine-associated receptor 1; assay: Counterscreen for agonists of the human trace amine associated receptor 1 (hTAAR1): Fluorescence-based cell-based high throughput dose response assay to identify hTAAR1 agonist that also desensitize TAAR1 receptor response.; type: functional
cells [34] = type: functional, cell-based; remark: listed apart in the source

O=C(O)CC/C(=N\Nc1ccc(S(=O)(=O)N2CCCC2)cc1[N+](=O)[O-])c1cccs1
IC50 [1]: 15.5 µM (active) | IC50 [2]: 14.5 µM (active) | IC50 [3]: 19 µM (active) | IC50 [4]: 15.6 µM (active) | IC50 [5]: 34.5 µM (inactive)

COc1cc2c(c(OC)c1OC)-c1ccc(OC)c(=O)cc1[C@@H](NC(C)=O)CC2 [COLCHICINE]
IC50 [6]: 0.0628 µM (active) | IC50 [7]: > 80 µM (inactive) | GI50 (P388/ADR): 1.36 µM (inactive) | GI50 (SN12K1): < 0.0625 µM (active) | GI50 (P388): 0.0625 µM (active) | IC50 (cells [8]): > 67.6 µM (inactive) | IC50 [9]: > 67.6 µM (inactive) | AC50 (Paired box protein Pax-8): < 0.26 µM (active) | IC50 [10]: 0.0017 µM (active) | AC50 (Cytochrome P450 2D6): 0.794 µM (active) | AC50 (Cytochrome P450 2C9): 3.16 µM (active)

Cn1cc(/C=C(\C(=O)O)C(C(=O)O)=C2CCCCC2)c2ccccc21
IC50 (Beta-lactamase [11]): > 59.6 µM (inactive) | IC50 (Beta-lactamase [12]): > 59.6 µM (inactive)

CSc1nc(SCCO)c2sc3nc(-c4ccco4)c4c(c3c2n1)CC(C)(C)OC4
IC50 [13]: > 56.8 µM (not active) | IC50 [14]: 14.3 µM (active) | IC50 (Ephrin type-A receptor 4): 6.73 µM (active) | IC50 [15]: 1.54 µM (active) | IC50 [1]: 3.01 µM (active) | EC50 [16]: 1.81 µM (active)

CCN1CCN(C(=O)/C=C/c2ccc(C)cc2)CC1
IC50 (Beta-galactosidase): > 80 µM (inactive)

NS(=O)(=O)c1ccc(NC(=O)c2cccc(N3C(=O)c4ccccc4C3=O)c2)cc1
IC50 [17]: > 20 µM (inactive) | IC50 [18]: 40.2 µM (active) | IC50 [19]: > 100 µM (inactive) | IC50 (Prothrombin): > 100 µM (inactive) | IC50 [20]: > 66.6 µM (inactive) | IC50 [21]: 14.4 µM (active) | IC50 (Albumin): > 94.1 µM (inactive) | IC50 [22]: 30.8 µM (inactive)

Sc1nnc(-c2ccc3ccccc3n2)n1-c1ccc2c(c1)OCCO2
IC50 (Beta-lactamase [23]): > 59.6 µM (inactive) | IC50 (Beta-lactamase [24]): > 59.6 µM (inactive) | IC50 (Beta-lactamase [25]): > 59.6 µM (inactive)

COc1ccc(/C=C2\SC(=O)N(CCC(=O)Nc3ccc(S(=O)(=O)Nc4nccs4)cc3)C2=O)cc1
IC50 [15]: 3.11 µM (active) | IC50 [26]: 15.2 µM (active) | IC50 [27]: 73.1 µM (active)

COc1ccc(-c2ccc(/C=N/NC(=O)c3cccnc3)o2)c([N+](=O)[O-])c1
IC50 [15]: 3.42 µM (active) | IC50 [28]: > 80 µM (inactive) | IC50 [29]: 12 µM (active) | IC50 [30]: 38.5 µM (inactive)

O=C(N[C@@H](Cc1cccnc1)C(=O)N1CCC[C@H]1C(=O)NCCc1ccccc1Cl)c1ccc(Cl)cc1Cl
IC50 (cells [31]): > 29.9 µM (inactive) | EC50 [32]: 4.03 µM (active) | IC50 [33]: 2.94 µM (active) | EC50 (cells [34]): > 29.9 µM (inactive)
